According to BindingDB's records for doi:10.1016/s0960-894x(99)00095-5 (Warner-Lambert, 1999):

Molecular target: Trypsin (Bos taurus)
Assay: In vitro for inhibition of purified bovine trypsin.

**Q.** With CN(c1nc2ccccc2c(=O)o1)S(=O)(=O)c1ccc(Cl)c(Cl)c1 [3,4-Dichloro-N-methyl-N-(4-oxo-4H-benzo[d][1,3]oxazin-2-yl)-benzenesulfonamide] as the molecule, how does the IC50 read?
**A.** Its IC50 is 8.3 µM.

**Q.** How did the IC50 turn out when Cc1ccc(S(=O)(=O)N(C)c2nc3ccccc3c(=O)o2)cc1 [4,N-Dimethyl-N-(4-oxo-4H-benzo[d][1,3]oxazin-2-yl)-benzenesulfonamide] was run?
**A.** The IC50 was 4.5 µM.

**Q.** For CN(c1nc2ccccc2c(=O)o1)S(=O)(=O)c1ccc(Cl)cc1 [4-Chloro-N-methyl-N-(4-oxo-4H-benzo[d][1,3]oxazin-2-yl)-benzenesulfonamide], which IC50 is on record?
**A.** The IC50 was 1.3 µM.

**Q.** With COc1ccc(S(=O)(=O)N(C)c2nc3ccccc3c(=O)s2)cc1 [4-Methoxy-N-methyl-N-(4-oxo-4H-benzo[d][1,3]thiazin-2-yl)-benzenesulfonamide] as the molecule, how does the IC50 read?
**A.** The IC50 was over 200 µM.

**Q.** For CN(c1nc2ccccc2c(=O)o1)S(=O)(=O)c1ccc(C(C)(C)C)cc1 [4-tert-Butyl-N-methyl-N-(4-oxo-4H-benzo[d][1,3]oxazin-2-yl)-benzenesulfonamide], which IC50 is on record?
**A.** Its IC50 is 5.83 µM.

**Q.** With CN(c1nc2ccccc2c(=O)o1)S(=O)(=O)c1ccc([N+](=O)[O-])cc1 [N-Methyl-4-nitro-N-(4-oxo-4H-benzo[d][1,3]oxazin-2-yl)-benzenesulfonamide] as the molecule, how does the IC50 read?
**A.** Its IC50 is over 100 µM.
